Results as given in US6602514B1, “Use of ectoine or ectoine derivatives in cosmetic formulations” (Merck Patent GmbH, priority 1998, dated 2003).

Assays:
[1] = tested on: skin barrier (forearm skin of the subjects); assay: In vivo determination of the transepidermal water loss (TEWL) following damage to the skin barrier by SDS treatment; design: species or system human; details: N=5; for TEWL after SDS stress: then 2% SDS, occlusion 24 h; for TEWL after ectoin treatment for 1 week: 2 mg/cm^2 twice daily, forearm; for TEWL before treatment: baseline, 22° C., 60% humidity
Protocol: Using the skincare creams (0/W) comprising ectoin described in. Example 4, an in vivo determination of the transepidermal water loss (TEWL) following damage to the skin barrier by SDS treatment is carried out. Firstly, the skin of the subjects (N=5) on the forearm is treated for one week twice daily with the O/W emulsion (2 mg/cm^2) comprising 2% and 5% of ectoin and an emulsion without ectoin (placebo). In order to increase the TEWL artificially as a result of damage to the horny barrier, the skin is then treated with 80 μl of sodium dodecyl sulfate (SDS; 2% in water) in an aluminum chamber with occlusion for 24 h. The TEWL determination is carried out in a climatically controlled room at 22° C. and an atmospheric humidity of 60% using a TM210 TEWA meter. […] The values for FIG. 1 are given in Tab. 1.

human erythrocytes = assay: RBC test: membrane-stabilizing action on ectoin pretreated erythrocytes against SDS; format: cell-based
Protocol: To determine the cell membrane- and protein-damaging action of surfactants, the RBC Test can, for example, be used. For this, the erythrocytes are incubated e.g. with sodium dodecyl sulfate (SDS), for example for a period of 10 minutes. SDS destabilizes the membrane of untreated cells such that the cells are partially lysed and their contents such as the hemoglobin are released. The hemoglobin released during cell-wall damage serves as an indicator for the spectrophotometric determination of the membrane damage by SDS. By reference to the hemoglobin released, it is possible to determine the number of destroyed erythrocytes.
Using an aqueous ectoin solution buffered in PBS buffer (22.2 mmol/l of disodium hydrogenphosphate, 5.6 mmol/l of potassium dihydrogenphosphate, 123.3 mmol/l of sodium chloride and 10 mmol/l of glucose), a determination of the membrane-stabilizing action of ectoin pretreated human erythrocytes against SDS is carried out. The RBC test is used here. The percentage membrane stabilization of cells pretreated with ectoin is determined.
(§1) Human erythrocytes (2×10^8 cells/ml) are treated for 1 hour with 0%, 0.1%, 0.5%, 1% and 5% of ectoin. The cells are then stressed for 10 min with 0 to 0.04% SDS solution. Then, spectrophotometry is used to determine how many cells have been lysed by reference to the free hemoglobin content. […] The experiment is carried out N=5 times.
as §1, with “In addition, human” for “Human”, “treated with 1% of ectoin” for “treated”, “0 (control), 6, 18” for “1 hour with 0%, 0.1%, 0.5%, 1%”, “24 hours.” for “5% of ectoin.”, “0.04% of” for “0.04%”

SMILES: CC1=N[C@H](C(=O)O)CCN1 [ectoin, (S)-1,4,5,6-tetrahydro-2-methyl-4-pyrimidecarboxylic acid]
- TEWL after SDS stress ([1]; O/W emulsion with 2% of ectoin for 1 week): 14.2 g/m^2/h
- TEWL after ectoin treatment for 1 week ([1]; O/W emulsion with 2% of ectoin): 5.6 g/m^2/h
- TEWL after SDS stress ([1]; O/W emulsion with 5% of ectoin for 1 week): 10.8 g/m^2/h
- TEWL after ectoin treatment for 1 week ([1]; O/W emulsion with 5% of ectoin): 5.6 g/m^2/h
- TEWL before treatment ([1]; test area for the O/W emulsion with 2% of ectoin): 5.6 g/m^2/h
- TEWL before treatment ([1]; test area for the O/W emulsion with 5% of ectoin): 5.1 g/m^2/h
- dependence of the protective effect on ectoin concentration (human erythrocytes; 0.1%, 0.5%, 1%, 5% of ectoin, 1 hour, FIG. 3): The higher the ectoin concentration, the greater the protective effect
- dependence of the protective effect on duration of pretreatment (human erythrocytes; 1% of ectoin for 6, 18, 24 hours, FIG. 4): The longer the cells are pretreated with ectoin, the greater the protective effect
- protection of erythrocytes against membrane damage by SDS (human erythrocytes; 1 hour pretreatment with 0.1-5% of ectoin, 10 min 0 to 0.04% SDS, FIG. 3): protects the cells against damage by SDS
